Assay results from ChEMBL document CHEMBL4411307, “N,N'-diaryl-bishydrazones in a biphenyl platform: Broad spectrum antifungal agents” (Eur J Med Chem, 2019).
pIC50: −log10 of the molar value. Converted amounts (≈) assume the structure as drawn. The source made the active and inactive calls. No cut-off for these calls is given here.

How the values were obtained:
[1] = tested on: Candida albicans; test: Antifungal activity against fluconazole/ITC-resistant Candida albicans ATCC 64124 measured after 48 hrs by CLSI M27-A3 protocol based method; type: functional; conditions: ATCC 64124, 48 h
[2] = tested on: A549; test: Cytotoxicity against human A549 cells after 24 hrs by resazurin based assay; type: cell-based; conditions: a549, 24 h
[3] = tested on: Candida albicans; test: Antifungal activity against fluconazole/ITC-resistant Candida albicans ATCC MYA-1237 measured after 48 hrs by CLSI M27-A3 protocol based method; type: functional; conditions: ATCC MYA-1237, 48 h
[4] = tested on: Staphylococcus aureus; test: Antibacterial activity against methicillin-resistant Staphylococcus aureus; type: functional, organism-based
[5] = Selectivity index, ratio of compound concentration showing <20 to <30% hemolysis in mouse RBC to MIC for Aspergillus flavus ATCC MYA-3631; type: toxicity; conditions: mouse red blood cells (RBC), read-out: Selectivity Index
[6] = tested on: Aspergillus nidulans; test: Antifungal activity against Aspergillus nidulans ATCC 38163 measured after 48 hrs by CLSI M38-A2 protocol based method; type: functional; conditions: ATCC 38163, 48 h
[7] = Selectivity index, ratio of compound concentration showing <20 to <30% hemolysis in mouse RBC to MIC for Candida glabrata ATCC 2001; type: toxicity; conditions: mouse red blood cells (RBC), read-out: Selectivity Index
[8] = Selectivity index, ratio of CC50 for human A549 cells to MIC for fluconazole/ITC-resistant Candida albicans ATCC MYA-1237; type: toxicity; conditions: read-out: Selectivity Index
[9] = Selectivity index, ratio of CC50 for human A549 cells to MIC for Aspergillus flavus ATCC MYA-3631; type: toxicity; conditions: read-out: Selectivity Index
[10] = Selectivity index, ratio of compound concentration showing <20 to <30% hemolysis in mouse RBC to MIC for Aspergillus terreus ATCC MYA-3633; type: toxicity; conditions: mouse red blood cells (RBC), read-out: Selectivity Index
[11] = Hemolytic activity in mouse RBC at 1.95 ug/ml after 1 hr relative to control; type: ADME, cell-based, Erythrocyte; conditions: red blood cells (erythrocytes), read-out: Activity
[12] = Selectivity index, ratio of compound concentration showing <20 to <30% hemolysis in mouse RBC to MIC for Candida krusei ATCC 6258; type: toxicity; conditions: mouse red blood cells (RBC), read-out: Selectivity Index
[13] = Selectivity index, ratio of CC50 for human A549 cells to MIC for fluconazole/ITC-susceptible Candida albicans ATCC MYA-2876; type: toxicity; conditions: read-out: Selectivity Index
[14] = Selectivity index, ratio of compound concentration showing <20 to <30% hemolysis in mouse RBC to MIC for fluconazole/ITC-susceptible Candida albicans ATCC MYA-2876; type: toxicity; conditions: red blood cells (erythrocytes), read-out: Selectivity Index
[15] = Selectivity index, ratio of compound concentration showing <20 to <30% hemolysis in mouse RBC to MIC for Candida parapsilosis ATCC 22019; type: toxicity; conditions: mouse red blood cells (RBC), read-out: Selectivity Index
[16] = Selectivity index, ratio of CC50 for human A549 cells to MIC for fluconazole/ITC-susceptible Candida albicans ATCC MYA-2310; type: toxicity; conditions: read-out: Selectivity Index
[17] = tested on: Candida albicans; test: Antifungal activity against fluconazole/ITC-susceptible Candida albicans ATCC MYA-2876 measured after 48 hrs by CLSI M27-A3 protocol based method; type: functional; conditions: ATCC MYA-2876, 48 h
[18] = Selectivity index, ratio of compound concentration showing <20 to <30% hemolysis in mouse RBC to MIC for fluconazole/ITC-resistant Candida albicans ATCC 90819; type: toxicity; conditions: red blood cells (erythrocytes), read-out: Selectivity Index
[19] = Hemolytic activity in mouse RBC at 7.8 ug/ml after 1 hr relative to control; type: ADME, cell-based, Erythrocyte; conditions: red blood cells (erythrocytes), read-out: Activity
[20] = tested on: Aspergillus terreus; test: Antifungal activity against Aspergillus terreus ATCC MYA-3633 measured after 48 hrs by CLSI M38-A2 protocol based method; type: functional; conditions: ATCC MYA-3633, 48 h
[21] = tested on: Candida albicans; test: Antifungal activity against fluconazole/ITC-resistant Candida albicans ATCC 90819 measured after 48 hrs by CLSI M27-A3 protocol based method; type: functional; conditions: ATCC 90819, 48 h
[22] = Selectivity index, ratio of CC50 for human A549 cells to MIC for fluconazole/ITC-resistant Candida albicans ATCC 90819; type: toxicity; conditions: read-out: Selectivity Index
[23] = Selectivity index, ratio of compound concentration showing <20 to <30% hemolysis in mouse RBC to MIC for fluconazole/ITC-resistant Candida albicans ATCC 10231; type: toxicity; conditions: red blood cells (erythrocytes), read-out: Selectivity Index
[24] = tested on: Pichia kudriavzevii; test: Antifungal activity against Candida krusei ATCC 6258 measured after 48 hrs by CLSI M27-A3 protocol based method; type: functional; conditions: ATCC 6258, 48 h
[25] = tested on: Enterococcus; test: Antibacterial activity against vancomycin-resistant Enterococcus; type: functional, organism-based
[26] = target: Voltage-gated inwardly rectifying potassium channel KCNH2 (Homo sapiens, UniProt Q12809); test: Inhibition of [3H]-dofetilide binding to human ERG expressed in HEK293 cell membranes measured after 1 hr by liquid scintillation counting method
Sequence of Voltage-gated inwardly rectifying potassium channel KCNH2 (Q12809 whole entry): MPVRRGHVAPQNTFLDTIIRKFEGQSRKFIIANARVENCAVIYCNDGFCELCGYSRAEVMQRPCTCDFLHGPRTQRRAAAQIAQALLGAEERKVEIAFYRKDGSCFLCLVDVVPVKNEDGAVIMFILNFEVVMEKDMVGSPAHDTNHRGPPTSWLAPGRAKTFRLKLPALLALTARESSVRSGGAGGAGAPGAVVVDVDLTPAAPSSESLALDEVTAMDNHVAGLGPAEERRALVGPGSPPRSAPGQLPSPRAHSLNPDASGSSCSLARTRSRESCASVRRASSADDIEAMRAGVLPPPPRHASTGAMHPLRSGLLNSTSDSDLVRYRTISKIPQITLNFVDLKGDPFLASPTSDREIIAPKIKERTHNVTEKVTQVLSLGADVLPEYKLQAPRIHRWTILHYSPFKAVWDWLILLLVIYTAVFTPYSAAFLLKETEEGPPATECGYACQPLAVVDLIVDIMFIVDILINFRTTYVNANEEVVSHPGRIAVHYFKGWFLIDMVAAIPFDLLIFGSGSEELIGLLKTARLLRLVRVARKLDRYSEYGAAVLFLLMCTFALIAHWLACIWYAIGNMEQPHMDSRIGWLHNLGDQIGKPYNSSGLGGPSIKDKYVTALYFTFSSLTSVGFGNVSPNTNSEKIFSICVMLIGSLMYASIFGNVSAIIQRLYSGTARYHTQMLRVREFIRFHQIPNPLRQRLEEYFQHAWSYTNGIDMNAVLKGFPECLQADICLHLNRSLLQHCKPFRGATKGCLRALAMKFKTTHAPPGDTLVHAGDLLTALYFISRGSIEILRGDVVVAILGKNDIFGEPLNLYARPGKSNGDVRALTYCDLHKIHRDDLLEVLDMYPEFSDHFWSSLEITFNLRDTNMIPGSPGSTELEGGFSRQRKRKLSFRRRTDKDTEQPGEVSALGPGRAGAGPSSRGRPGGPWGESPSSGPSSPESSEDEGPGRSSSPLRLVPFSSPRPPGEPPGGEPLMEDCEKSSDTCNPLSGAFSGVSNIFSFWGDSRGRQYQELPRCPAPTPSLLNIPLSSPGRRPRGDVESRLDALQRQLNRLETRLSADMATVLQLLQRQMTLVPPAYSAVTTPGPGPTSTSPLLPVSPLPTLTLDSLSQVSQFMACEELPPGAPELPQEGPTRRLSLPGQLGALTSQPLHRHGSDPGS

[27] = Selectivity index, ratio of CC50 for human A549 cells to MIC for fluconazole/ITC-resistant Candida albicans ATCC 10231; type: toxicity; conditions: read-out: Selectivity Index
[28] = Hemolytic activity in mouse RBC at […] after 1 hr relative to control; type: ADME, cell-based, Erythrocyte; conditions: red blood cells (erythrocytes), read-out: Activity; note: tested at 0.48 µg/mL
[29] = Selectivity index, ratio of CC50 for human A549 cells to MIC for Aspergillus terreus ATCC MYA-3633; type: toxicity; conditions: read-out: Selectivity Index
[30] = tested on: Candida albicans; test: Antifungal activity against fluconazole/ITC-resistant Candida albicans ATCC 10231 measured after 48 hrs by CLSI M27-A3 protocol based method; type: functional; conditions: ATCC 10231, 48 h
[31] = Selectivity index, ratio of CC50 for human A549 cells to MIC for Aspergillus nidulans ATCC 38163; type: toxicity; conditions: read-out: Selectivity Index
[32] = Hemolytic activity in mouse RBC at 62.5 ug/ml after 1 hr relative to control; type: ADME, cell-based, Erythrocyte; conditions: red blood cells (erythrocytes), read-out: Activity
[33] = Selectivity index, ratio of CC50 for human A549 cells to MIC for fluconazole/ITC-resistant Candida albicans ATCC 64124; type: toxicity; conditions: read-out: Selectivity Index
[34] = tested on: Listeria monocytogenes; test: Antibacterial activity against Listeria monocytogenes; type: functional, organism-based
[35] = Selectivity index, ratio of compound concentration showing <20 to <30% hemolysis in mouse RBC to MIC for Aspergillus nidulans ATCC 38163; type: toxicity; conditions: mouse red blood cells (RBC), read-out: Selectivity Index
[36] = tested on: Candida parapsilosis; test: Antifungal activity against Candida parapsilosis ATCC 22019 measured after 48 hrs by CLSI M27-A3 protocol based method; type: functional; conditions: Lodderomyces parapsilosis, ATCC 22019, 48 h
[37] = Selectivity index, ratio of compound concentration showing <20 to <30% hemolysis in mouse RBC to MIC for fluconazole/ITC-resistant Candida albicans ATCC MYA-1237; type: toxicity; conditions: mouse red blood cells (RBC), read-out: Selectivity Index
[38] = tested on: BEAS-2B; test: Cytotoxicity against human BEAS2B cells after 24 hrs by resazurin based assay; type: cell-based
[39] = Selectivity index, ratio of CC50 for human A549 cells to MIC for Candida glabrata ATCC 2001; type: toxicity; conditions: read-out: Selectivity Index
[40] = Selectivity index, ratio of compound concentration showing <20 to <30% hemolysis in mouse RBC to MIC for fluconazole/ITC-resistant Candida albicans ATCC 64124; type: toxicity; conditions: red blood cells (erythrocytes), read-out: Selectivity Index
[41] = Hemolytic activity in mouse RBC at 3.9 ug/ml after 1 hr relative to control; type: ADME, cell-based, Erythrocyte; conditions: red blood cells (erythrocytes), read-out: Activity
[42] = Selectivity index, ratio of CC50 for human A549 cells to MIC for fluconazole/ITC-resistant Candida albicans ATCC MYA-1003; type: toxicity; conditions: read-out: Selectivity Index
[43] = Selectivity index, ratio of CC50 for human A549 cells to MIC for Candida krusei ATCC 6258; type: toxicity; conditions: read-out: Selectivity Index
[44] = Hemolytic activity in mouse RBC at 31.3 ug/ml after 1 hr relative to control; type: ADME, cell-based, Erythrocyte; conditions: red blood cells (erythrocytes), read-out: Activity
[45] = Selectivity index, ratio of compound concentration showing <20 to <30% hemolysis in mouse RBC to MIC for fluconazole/ITC-susceptible Candida albicans ATCC MYA-2310; type: toxicity; conditions: mouse red blood cells (RBC), read-out: Selectivity Index
[46] = tested on: Aspergillus flavus; test: Antifungal activity against Aspergillus flavus ATCC MYA-3631 measured after 48 hrs by CLSI M38-A2 protocol based method; type: functional; conditions: ATCC MYA-3631, 48 h
[47] = Hemolytic activity in mouse RBC at […] ug/ml after 1 hr relative to control; type: ADME, cell-based, Erythrocyte; conditions: red blood cells (erythrocytes), read-out: Activity
[48] = Selectivity index, ratio of CC50 for human A549 cells to MIC for Candida parapsilosis ATCC 22019; type: toxicity; conditions: read-out: Selectivity Index
[49] = Selectivity index, ratio of compound concentration showing <20 to <30% hemolysis in mouse RBC to MIC for fluconazole/ITC-resistant Candida albicans ATCC MYA-1003; type: toxicity; conditions: mouse red blood cells (RBC), read-out: Selectivity Index

COc1ccc(N/N=C/c2ccc(-c3cccc(/C=N/Nc4ccc(OC)cc4)c3)cc2)cc1
MIC [1]: 15.6 µg/mL (≈ 34.6 µM)
CC50 [2]: 18.2 µg/mL (≈ 40.4 µM)
MIC [3]: 3.9 µg/mL (≈ 8.66 µM)
Activity [4]: inactive
selectivity ratio [5]: 1 to 32
MIC [6]: 31.3 µg/mL (≈ 69.5 µM)
selectivity ratio [7]: 1 to 32
selectivity ratio [8]: 4.7
selectivity ratio [9]: 0.6
selectivity ratio [10]: 1 to 32
hemolysis at 1 h, 1.95 ug/ml [11]: 4.5%
selectivity ratio [12]: 1 to 32
selectivity ratio [13]: 4.7
selectivity ratio [14]: 1 to 32
selectivity ratio [15]: 1 to 32
selectivity ratio [16]: 2.3
MIC [17]: 3.9 µg/mL (≈ 8.66 µM)
selectivity ratio [18]: 1 to 32
hemolysis at 1 h, 7.8 ug/ml [19]: 2.6%
MIC [20]: > 31.3 µg/mL
MIC [21]: 3.9 µg/mL (≈ 8.66 µM)
selectivity ratio [22]: 4.7
selectivity ratio [23]: 1 to 32
MIC [24]: 3.9 µg/mL (≈ 8.66 µM)
Activity [25]: inactive
pIC50 [26]: < 4.52
selectivity ratio [27]: 9.3
hemolysis at 1 h, […] [28]: 0%
selectivity ratio [29]: 0.6
MIC [30]: 1.95 µg/mL (≈ 4.33 µM)
selectivity ratio [31]: 0.6
hemolysis at 1 h, 62.5 ug/ml [32]: 18.8%
selectivity ratio [33]: 1.2
Activity [34]: inactive
selectivity ratio [35]: 1 to 32
MIC [36]: > 31.3 µg/mL
selectivity ratio [37]: 1 to 32
CC50 [38]: 14.1 µg/mL (≈ 31.3 µM)
selectivity ratio [39]: 2.3
selectivity ratio [40]: 1 to 32
hemolysis at 1 h, 3.9 ug/ml [41]: 3%
selectivity ratio [42]: 2.3
selectivity ratio [43]: 4.7
hemolysis at 1 h, 31.3 ug/ml [44]: 9.6%
selectivity ratio [45]: 1 to 32
MIC [46]: > 31.3 µg/mL
hemolysis at 1 h, 15.6 ug/ml ([47]; at 15.6 µg/mL): 7.8%
hemolysis at 1 h, 0.975 ug/ml [47]: 2.6%
selectivity ratio [48]: 0.6
selectivity ratio [49]: 1 to 32
